# According to patent US9549941B2, “Compositions and methods for treating hepatitis C virus” (priority 2011, dated 2017):
# pEC50: −log10 of the molar value.
# How the values were obtained:
# HCV GT2 or GT3 = assay: ELECTRON Phase 2a clinical study, treatment-naive GT2/GT3 (Groups 1-6, 10); type: in vivo, human; conditions: for HCV RNA (log10 IU/mL), mean: GT2/GT3 Tx-naive, N=10; for HCV RNA below LOD, %: Genotype 2/3 Treatment Naive (Groups 1-6); for % < LOD / n/N < LOD: Groups 1-5, GT2/GT3 Tx-naive
# Method: In comparison, only 60% of treatment-naïve GT2/GT3 HCV patients receiving GS-7977 monotherapy achieved SVR-12.
# Group 1: GS-7977 (400 mg QD) with RBV (1000/1200 mg BID) for 12 weeks (no peginterferon) (GT2/GT3 treatment-naïve); and
# Groups 2, 3, 4: GS-7977 (400 mg QD) with RBV (1000/1200 mg BID) for 12 weeks and PEG (180 μg weekly) weeks 1-4 only/PEG (180 μg weekly) weeks 1-8 only/PEG (180 μg weekly) weeks 1-12 (GT2/GT3 treatment-naïve).
# In Part 2 of the ELECTRON trial, an additional 30 patients were enrolled in exploratory regimens of GS-7977 monotherapy and abbreviated durations of total therapy with the combination of GS-7977, RBV and PEG:
# Group 5: GS-7977 (400 mg QD) monotherapy for 12 weeks (GT2/GT3 treatment-naïve);
# Group 6: GS-7977 (400 mg QD) with PEG (180 μg weekly) and RBV (1000/1200 mg BID) for 8 weeks (GT2/GT3 treatment-naïve); and
# Group 10: GS-7977 (400 mg QD) with RBV (1000/1200 mg BID) for 8 weeks (GT2/GT3 treatment-naïve); and […]
# [1] = system: 1a-H77 sub-genomic replicon, wild-type NS5B; assay: Transient replicon assay; type: cell-based; conditions: Hepatitis C virus, read-out: EC50 WT
# Method: (§1) (Lam et al., J. Virology (2011) 85(23): 12334-12342; Lam et al., Antimicrob. Agents Chemother. (2012) 56(6): 3359-3368.) S282T mutations in NS5B were created by site-directed mutagenesis in 1a-H77, 1b con-1, and 2a JFH1 sub-genomic replicons. 1b con-1-based chimeric replicons containing 2b, 3a, 4a, 5a, or 6a NS5B were also engineered to harbor the S282T mutation. […] Relative percentages of mutant and WT were assessed by deep sequencing.
# [2] = system: 1b con-1-based chimeric replicon containing 5a NS5B, wild-type; assay: Transient replicon assay; type: cell-based; conditions: Hepatitis C virus, read-out: EC50 WT
# Method: as §1
smiles,measurement,setting,value
"CC(C)OC(=O)[C@H](C)N[P@](=O)(OC[C@H]1O[C@@H](n2ccc(=O)[nH]c2=O)[C@](C)(F)[C@@H]1O)Oc1ccccc1 [GS-7977, (S)-isopropyl 2-(((S)-(((2R,3R,4R,5R)-5-(2,4-dioxo-3,4-dihydropyrimidin-1(2H)-yl)-4-fluoro-3-hydroxy-4-methyltetrahydrofuran-2-yl)methoxy)(phenoxy)phosphoryl)amino)propanoate]","HCV RNA (log10 IU/mL), mean",HCV GT2 or GT3; D1,5.74 log10 IU/mL
same,"HCV RNA (log10 IU/mL), mean",HCV GT2 or GT3; D1 (6 hr) after dosing,5.63 log10 IU/mL
same,"HCV RNA (log10 IU/mL), mean",HCV GT2 or GT3; D1 (12 hr) after dosing,4.98 log10 IU/mL
same,"HCV RNA (log10 IU/mL), mean",HCV GT2 or GT3; D2,3.75 log10 IU/mL
same,"HCV RNA (log10 IU/mL), mean",HCV GT2 or GT3; D3,2.62 log10 IU/mL
same,"HCV RNA (log10 IU/mL), mean",HCV GT2 or GT3; T = 0 (initial screening values),6.08 log10 IU/mL
same,"HCV RNA (log10 IU/mL), mean",HCV GT2 or GT3; W1,1.56 log10 IU/mL
same,"HCV RNA (log10 IU/mL), mean",HCV GT2 or GT3; W2,1.22 log10 IU/mL
same,"HCV RNA (log10 IU/mL), mean",HCV GT2 or GT3; W3,1.15 log10 IU/mL
same,"HCV RNA (log10 IU/mL), mean",HCV GT2 or GT3; W4,1.15 log10 IU/mL
same,"HCV RNA (log10 IU/mL), mean",HCV GT2 or GT3; W5,1.15 log10 IU/mL
same,"HCV RNA (log10 IU/mL), mean",HCV GT2 or GT3; W6,1.15 log10 IU/mL
same,"HCV RNA (log10 IU/mL), mean",HCV GT2 or GT3; W7,1.15 log10 IU/mL
same,"HCV RNA (log10 IU/mL), mean",HCV GT2 or GT3; W8,1.15 log10 IU/mL
same,"HCV RNA (log10 IU/mL), mean",HCV GT2 or GT3; W9,1.15 log10 IU/mL
same,"HCV RNA (log10 IU/mL), mean",HCV GT2 or GT3; W10,1.15 log10 IU/mL
same,"HCV RNA (log10 IU/mL), mean",HCV GT2 or GT3; W11,1.15 log10 IU/mL
same,"HCV RNA (log10 IU/mL), mean",HCV GT2 or GT3; W12 (end of treatment),1.15 log10 IU/mL
same,"HCV RNA (log10 IU/mL), mean",HCV GT2 or GT3; W14 (after 12-week treatment),1.66 log10 IU/mL
same,"HCV RNA (log10 IU/mL), mean",HCV GT2 or GT3; W16 (after 12-week treatment),2.95 log10 IU/mL
same,"HCV RNA (log10 IU/mL), mean",HCV GT2 or GT3; W20 (after 12-week treatment),3.12 log10 IU/mL
same,"HCV RNA (log10 IU/mL), mean",HCV GT2 or GT3; W24 (12 weeks after treatment),3.17 log10 IU/mL
same,"HCV RNA below LOD, %",HCV GT2 or GT3; SVR-4,(60) %
same,"HCV RNA below LOD, %",HCV GT2 or GT3; SVR-12,(60) %
same,"HCV RNA below LOD, %",HCV GT2 or GT3; Time 1 wk,(50) %
same,"HCV RNA below LOD, %",HCV GT2 or GT3; Time 2 wks,(80) %
same,"HCV RNA below LOD, %",HCV GT2 or GT3; Time 3 wks,(100) %
same,"HCV RNA below LOD, %",HCV GT2 or GT3; Time 4 wks,(100) %
same,"HCV RNA below LOD, %",HCV GT2 or GT3; Time 8 wks,(100) %
same,"HCV RNA below LOD, %",HCV GT2 or GT3; Time 12 wks,(100) %
same,% < LOD,HCV GT2 or GT3; SVR-4,60%
same,n/N < LOD,HCV GT2 or GT3; SVR-4,6/10
same,% < LOD,HCV GT2 or GT3; SVR-8,60%
same,n/N < LOD,HCV GT2 or GT3; SVR-8,6/10
same,% < LOD,HCV GT2 or GT3; SVR-12,60%
same,n/N < LOD,HCV GT2 or GT3; SVR-12,6/10
same,% < LOD,HCV GT2 or GT3; SVR-24,60%
same,n/N < LOD,HCV GT2 or GT3; SVR-24,6/10
same,% < LOD,HCV GT2 or GT3; Time 0 wks,0%
same,% < LOD,HCV GT2 or GT3; Time 4 wks,100%
same,n/N < LOD,HCV GT2 or GT3; Time 4 wks,10/10
same,% < LOD,HCV GT2 or GT3; Time 8 wks,100%
same,n/N < LOD,HCV GT2 or GT3; Time 8 wks,10/10
same,% < LOD,HCV GT2 or GT3; Time 12 wks,100%
same,n/N < LOD,HCV GT2 or GT3; Time 12 wks,10/10
same,SVR-24,"HCV GT2 or GT3; treatment-naive GT2/GT3, 12 weeks GS-7977 400 mg QD",60%
same,SVR-12,"HCV GT2 or GT3; treatment-naive GT2/GT3 HCV patients, GS-7977 400 mg QD",60%
same,pEC50,[1],7.60
same,pEC50,[2],8.00
